# Results as given in ChEMBL document CHEMBL1201862, “PubChem BioAssay data set” (2004).
# Structures can show the parent of a compound that is named as a salt. Activity calls are given as the source filed them.
# What was measured:
# [1] = Dose-response inhibition of insulin secretion in a rat insulinoma line at 5 mM glucose (AID 1117331); format: functional, cell-based; details: INS-1E
# [2] = cells; format: functional, cell-based; details: INS-1E
# [3] = HepG2 hepatoma cell cytotoxicity, dose response, cytotoxicity control, CellTiter-Glo luminescence, dry powder, set 3 (AID 720594); format: functional, cell-based
# [4] = HEK293T cell cytotoxicity, dose response, cytotoxicity control, CellTiter-Glo luminescence, dry powder, set 2 (AID 720595); format: functional, cell-based; details: HEK293
# [5] = inhibitors of Vif binding to APOBEC3G peptide, primary screen, biochemical, TR-FRET, GST-Vif 1-94, biotin-A3G peptide, dose response retest (AID 1117319); format: functional;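 further: TR-FRET signal of purified GST-Vif binding a biotinylated A3G peptide; inhibitors lower the FRET signal by blocking Vif and A3G binding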
# [6] = Jurkat T cell cytotoxicity, dose response, cytotoxicity control for P. falciparum gametocyte viability project, luminescence (AID 1117277); format: functional, cell-based;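 further: potency reflects loss of cellular ATP meaning fewer viable cells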
# [7] = target: T1, Fatty acid synthase (Homo sapiens, UniProt P49327); experiment: FAS thioesterase domain inhibitors, dose response, biochemical, kinetic fluorescence intensity (AID 624326); format: functional;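 further: rate of fluorescence rise from hydrolysis of a fluorogenic O-methyl fluorescein ester substrate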
# [8] = P. falciparum late gametocyte killing, dose response, luminescence (AID 1117278); format: functional, cell-based;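 further: gametocytes exposed to compound for 24 hours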
# [9] = target: T1, Fatty acid synthase; experiment: FAS thioesterase domain inhibitors, dose response, biochemical, endpoint fluorescence intensity, uHTS hits (AID 624327); format: functional;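 further: fluorescence from hydrolysis of an O-methyl fluorescein acyl ester substrate by the enzyme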
# [10] = target: T2, Heat shock factor protein 1 (Mus musculus, UniProt P38532); experiment: HSF1 potentiators in luciferase reporter cells, confirmation, cell-based, NIH3T3, luminescence, dose retest (AID 435004); format: functional;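 further: stress induced by proteasome inhibitor MG132 added 30 min after compound; luciferase reporter driven by HSF1 response element in NIH3T3 cells; actives raise luminescence as potentiators of the MG132 stress response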
# T2 sequence (P38532 whole entry): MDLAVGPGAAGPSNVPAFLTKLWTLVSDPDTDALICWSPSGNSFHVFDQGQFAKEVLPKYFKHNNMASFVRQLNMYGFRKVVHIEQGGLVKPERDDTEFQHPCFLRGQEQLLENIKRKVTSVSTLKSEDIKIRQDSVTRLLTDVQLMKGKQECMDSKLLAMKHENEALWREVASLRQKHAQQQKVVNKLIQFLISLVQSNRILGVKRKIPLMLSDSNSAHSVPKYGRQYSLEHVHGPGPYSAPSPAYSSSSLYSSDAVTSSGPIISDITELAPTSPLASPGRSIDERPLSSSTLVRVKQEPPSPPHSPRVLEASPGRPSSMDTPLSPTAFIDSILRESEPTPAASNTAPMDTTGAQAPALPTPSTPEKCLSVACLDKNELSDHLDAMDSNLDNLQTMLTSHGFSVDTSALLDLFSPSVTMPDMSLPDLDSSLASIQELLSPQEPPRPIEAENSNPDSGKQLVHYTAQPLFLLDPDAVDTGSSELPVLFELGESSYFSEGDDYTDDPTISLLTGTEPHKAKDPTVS
# [11] = HepG2 cell cytotoxicity, dose response, cytotoxicity control, cherry-picked samples (AID 1159577); format: functional, cell-based
# [12] = P. falciparum Dd2 growth inhibitors, dose response, SYBR Green, cherry-picked samples (AID 1159567); format: functional, cell-based
# [13] = Vero cell cytotoxicity, dose response, cytotoxicity control for Vif-APOBEC3G degradation inhibitor project, Vero cells (AID 1117358); format: functional; details: Human immunodeficiency virus 1, Vero
# [14] = target: T3, Corticotropin-releasing factor receptor 2/Corticotropin-releasing factor-binding protein (Homo sapiens, UniProt P24387+Q13324); experiment: Dose Response confirmation of uHTS hits for small molecule antagonists of the CRF-binding protein and CRF-R2 receptor complex.; format: functional; details: read-out: IC50_Mean
# T3 sequence (Q13324 whole entry): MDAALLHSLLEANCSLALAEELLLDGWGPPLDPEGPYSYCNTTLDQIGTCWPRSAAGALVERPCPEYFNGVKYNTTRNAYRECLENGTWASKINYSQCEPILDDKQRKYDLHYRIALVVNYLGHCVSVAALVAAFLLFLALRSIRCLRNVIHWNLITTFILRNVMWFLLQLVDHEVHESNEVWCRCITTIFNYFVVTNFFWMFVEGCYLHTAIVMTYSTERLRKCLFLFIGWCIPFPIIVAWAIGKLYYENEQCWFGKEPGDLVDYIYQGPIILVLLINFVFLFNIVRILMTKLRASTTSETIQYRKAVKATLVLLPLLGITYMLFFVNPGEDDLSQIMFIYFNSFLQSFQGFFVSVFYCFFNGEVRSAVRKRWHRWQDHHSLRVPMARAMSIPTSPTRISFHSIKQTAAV
# T3 sequence (P24387 whole entry): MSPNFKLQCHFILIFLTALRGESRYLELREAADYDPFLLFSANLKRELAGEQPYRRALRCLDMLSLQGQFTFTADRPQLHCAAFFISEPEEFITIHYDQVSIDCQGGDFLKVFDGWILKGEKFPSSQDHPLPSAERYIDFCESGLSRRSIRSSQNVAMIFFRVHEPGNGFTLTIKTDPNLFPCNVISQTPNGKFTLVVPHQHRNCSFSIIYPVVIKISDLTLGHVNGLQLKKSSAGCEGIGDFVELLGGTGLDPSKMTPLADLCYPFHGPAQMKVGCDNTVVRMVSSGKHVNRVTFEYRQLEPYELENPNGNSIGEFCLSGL
# [15] = target: T3, Corticotropin-releasing factor receptor 2/Corticotropin-releasing factor-binding protein; experiment: activators of CRF receptor 2 with binding protein – uHTS hits, confirmation (AID 602473); format: functional; details: read-out: EC50_Mean
# [16] = T. b. rhodesiense proliferation inhibition, dose response, STIB900 strain, plate reader, dry powder (AID 651894); format: functional, cell-based
# [17] = T. cruzi growth inhibition in host cells, dose response, cell-based, plate reader, dry powder, set 2 (AID 652275); format: functional
# [18] = L. donovani amastigote growth inhibition, dose response, axenic amastigotes, plate reader, dry powder (AID 651892); format: functional, cell-based
# [19] = L-6 rat myoblast cytotoxicity, dose response, counter-screen for T. cruzi inhibitor project, cell-based, plate reader, dry powder (AID 651895); format: functional
# [20] = growth inhibition of intracellular T. cruzi, dose response, cell-based, plate reader, dry powder samples (AID 651845); format: functional
# [21] = T. cruzi amastigote growth inhibition, dose response, Tulahuen strain, L-6 host cells, dry powder (AID 651890); format: functional, cell-based
# [22] = P. falciparum blood-stage growth inhibition, dose response, NF54 strain, plate reader, dry powder (AID 651889); format: functional, cell-based
# [23] = T. cruzi intracellular amastigote growth inhibition, dose response, imaging, CA-I/72 strain, bovine embryo skeletal muscle, dry powder (AID 651885); format: functional, cell-based
# [24] = target: T4, Protein skinhead-1 (Caenorhabditis elegans, UniProt P34707); format: functional
# T4 sequence (P34707 whole entry): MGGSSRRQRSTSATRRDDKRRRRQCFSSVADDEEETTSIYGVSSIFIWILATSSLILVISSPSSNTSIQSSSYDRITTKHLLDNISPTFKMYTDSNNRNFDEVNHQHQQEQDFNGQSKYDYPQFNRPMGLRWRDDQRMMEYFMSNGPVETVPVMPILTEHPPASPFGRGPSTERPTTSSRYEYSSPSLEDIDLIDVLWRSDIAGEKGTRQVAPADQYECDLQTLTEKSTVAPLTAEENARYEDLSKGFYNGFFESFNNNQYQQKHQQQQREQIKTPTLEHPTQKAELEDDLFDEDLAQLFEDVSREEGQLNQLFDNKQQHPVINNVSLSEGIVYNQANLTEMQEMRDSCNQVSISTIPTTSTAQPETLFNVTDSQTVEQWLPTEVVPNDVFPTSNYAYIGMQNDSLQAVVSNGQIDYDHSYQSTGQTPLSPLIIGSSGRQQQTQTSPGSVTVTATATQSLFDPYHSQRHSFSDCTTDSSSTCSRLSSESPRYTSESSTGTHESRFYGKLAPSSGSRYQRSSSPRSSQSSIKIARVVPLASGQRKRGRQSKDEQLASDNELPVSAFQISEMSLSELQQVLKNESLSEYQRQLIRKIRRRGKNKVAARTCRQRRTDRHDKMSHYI
# [25] = target: T5, Oxysterols receptor LXR-beta (Homo sapiens, UniProt P55055); experiment: LXR agonists, Gal4 luciferase reporter, dose response, counter-screen for ssDAF-12 agonist project, cell-based, luminescence, HEK293, S. stercoralis campaign (AID 720737); format: functional; details: read-out: IC50 (the source's name)
# T5 sequence (P55055 whole entry): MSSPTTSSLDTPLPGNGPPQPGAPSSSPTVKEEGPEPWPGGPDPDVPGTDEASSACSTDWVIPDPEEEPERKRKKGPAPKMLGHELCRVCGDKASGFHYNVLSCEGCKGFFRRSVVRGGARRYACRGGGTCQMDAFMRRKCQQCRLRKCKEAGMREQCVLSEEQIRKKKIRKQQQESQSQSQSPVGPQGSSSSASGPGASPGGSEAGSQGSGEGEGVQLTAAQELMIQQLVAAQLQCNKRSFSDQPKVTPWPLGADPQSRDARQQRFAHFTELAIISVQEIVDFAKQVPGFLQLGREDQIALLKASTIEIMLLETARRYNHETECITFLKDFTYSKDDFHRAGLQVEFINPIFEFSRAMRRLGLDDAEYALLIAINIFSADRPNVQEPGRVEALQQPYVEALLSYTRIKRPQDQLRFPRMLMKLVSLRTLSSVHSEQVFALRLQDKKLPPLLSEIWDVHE
# [26] = target: G-protein coupled receptor 55 (Homo sapiens, UniProt Q9Y2T6); experiment: GPR55 agonists via beta-arrestin recruitment, primary screen, imaging, U2OS cells, beta-arrestin-GFP redistribution (AID 1961); format: functional
# [27] = target: T5, Oxysterols receptor LXR-beta; format: functional, cell-based
# [28] = Luminescence-based cell-based high throughput dose response assay to identify activators of the DAF-12 from the parasite S. stercoralis (ssDAF-12).; format: functional
# [29] = Late stage assay provider results from the probe development effort to identify inhibitors of the Plasmodium falciparum M18 Aspartyl Aminopeptidase (M18AAP): radiolabel-based cell-based dose response assay to identify compounds that inhibit P. falciparum growth in RBCs, Set 2..; format: functional
# [30] = Late stage counterscreen for inhibitors of Trypanosoma brucei methionyl tRNA synthetase (MetRS): Luminescence-based cell-based high throughput dose response assay to identify compounds that are cytotoxic to Jurkat human T lymphocyte cells.; format: functional
# [31] = Counterscreen for inhibitors of Trypanosoma brucei methionyl tRNA synthetase (MetRS): Luminescence-based cell-based high throughput dose response assay to identify compounds that are cytotoxic to Jurkat human T lymphocyte cells.; format: functional
# [32] = target: T6, Methionyl-tRNA synthetase, putative (Trypanosoma brucei brucei, UniProt Q38C91); format: functional, Trypanosoma brucei brucei strain 927/4 GUTat10.1
# T6 sequence (Q38C91 whole entry): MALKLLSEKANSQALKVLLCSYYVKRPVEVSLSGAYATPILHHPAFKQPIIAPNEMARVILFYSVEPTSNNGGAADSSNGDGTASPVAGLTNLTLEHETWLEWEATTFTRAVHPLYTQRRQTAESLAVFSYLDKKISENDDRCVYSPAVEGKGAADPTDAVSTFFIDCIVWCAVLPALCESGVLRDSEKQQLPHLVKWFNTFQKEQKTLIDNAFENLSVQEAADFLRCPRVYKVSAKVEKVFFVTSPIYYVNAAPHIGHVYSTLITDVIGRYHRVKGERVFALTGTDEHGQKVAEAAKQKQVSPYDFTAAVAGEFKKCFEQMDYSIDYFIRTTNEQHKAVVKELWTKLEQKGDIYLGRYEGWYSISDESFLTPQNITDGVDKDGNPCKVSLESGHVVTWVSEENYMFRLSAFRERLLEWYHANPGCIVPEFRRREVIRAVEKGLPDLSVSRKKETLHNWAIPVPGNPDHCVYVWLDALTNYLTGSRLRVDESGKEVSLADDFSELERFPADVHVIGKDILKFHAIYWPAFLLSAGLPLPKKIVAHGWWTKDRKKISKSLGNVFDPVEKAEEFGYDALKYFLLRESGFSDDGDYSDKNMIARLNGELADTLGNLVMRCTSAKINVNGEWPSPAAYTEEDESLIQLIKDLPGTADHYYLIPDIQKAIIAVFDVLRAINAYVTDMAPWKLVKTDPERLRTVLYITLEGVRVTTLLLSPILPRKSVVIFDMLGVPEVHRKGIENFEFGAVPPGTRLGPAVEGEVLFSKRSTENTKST
# [33] = target: T6, Methionyl-tRNA synthetase, putative; format: functional, Trypanosoma brucei brucei strain 927/4 GUTat10.1; remark: listed apart in the source
# T1 sequence (P49327 whole entry, the tested form may be a part): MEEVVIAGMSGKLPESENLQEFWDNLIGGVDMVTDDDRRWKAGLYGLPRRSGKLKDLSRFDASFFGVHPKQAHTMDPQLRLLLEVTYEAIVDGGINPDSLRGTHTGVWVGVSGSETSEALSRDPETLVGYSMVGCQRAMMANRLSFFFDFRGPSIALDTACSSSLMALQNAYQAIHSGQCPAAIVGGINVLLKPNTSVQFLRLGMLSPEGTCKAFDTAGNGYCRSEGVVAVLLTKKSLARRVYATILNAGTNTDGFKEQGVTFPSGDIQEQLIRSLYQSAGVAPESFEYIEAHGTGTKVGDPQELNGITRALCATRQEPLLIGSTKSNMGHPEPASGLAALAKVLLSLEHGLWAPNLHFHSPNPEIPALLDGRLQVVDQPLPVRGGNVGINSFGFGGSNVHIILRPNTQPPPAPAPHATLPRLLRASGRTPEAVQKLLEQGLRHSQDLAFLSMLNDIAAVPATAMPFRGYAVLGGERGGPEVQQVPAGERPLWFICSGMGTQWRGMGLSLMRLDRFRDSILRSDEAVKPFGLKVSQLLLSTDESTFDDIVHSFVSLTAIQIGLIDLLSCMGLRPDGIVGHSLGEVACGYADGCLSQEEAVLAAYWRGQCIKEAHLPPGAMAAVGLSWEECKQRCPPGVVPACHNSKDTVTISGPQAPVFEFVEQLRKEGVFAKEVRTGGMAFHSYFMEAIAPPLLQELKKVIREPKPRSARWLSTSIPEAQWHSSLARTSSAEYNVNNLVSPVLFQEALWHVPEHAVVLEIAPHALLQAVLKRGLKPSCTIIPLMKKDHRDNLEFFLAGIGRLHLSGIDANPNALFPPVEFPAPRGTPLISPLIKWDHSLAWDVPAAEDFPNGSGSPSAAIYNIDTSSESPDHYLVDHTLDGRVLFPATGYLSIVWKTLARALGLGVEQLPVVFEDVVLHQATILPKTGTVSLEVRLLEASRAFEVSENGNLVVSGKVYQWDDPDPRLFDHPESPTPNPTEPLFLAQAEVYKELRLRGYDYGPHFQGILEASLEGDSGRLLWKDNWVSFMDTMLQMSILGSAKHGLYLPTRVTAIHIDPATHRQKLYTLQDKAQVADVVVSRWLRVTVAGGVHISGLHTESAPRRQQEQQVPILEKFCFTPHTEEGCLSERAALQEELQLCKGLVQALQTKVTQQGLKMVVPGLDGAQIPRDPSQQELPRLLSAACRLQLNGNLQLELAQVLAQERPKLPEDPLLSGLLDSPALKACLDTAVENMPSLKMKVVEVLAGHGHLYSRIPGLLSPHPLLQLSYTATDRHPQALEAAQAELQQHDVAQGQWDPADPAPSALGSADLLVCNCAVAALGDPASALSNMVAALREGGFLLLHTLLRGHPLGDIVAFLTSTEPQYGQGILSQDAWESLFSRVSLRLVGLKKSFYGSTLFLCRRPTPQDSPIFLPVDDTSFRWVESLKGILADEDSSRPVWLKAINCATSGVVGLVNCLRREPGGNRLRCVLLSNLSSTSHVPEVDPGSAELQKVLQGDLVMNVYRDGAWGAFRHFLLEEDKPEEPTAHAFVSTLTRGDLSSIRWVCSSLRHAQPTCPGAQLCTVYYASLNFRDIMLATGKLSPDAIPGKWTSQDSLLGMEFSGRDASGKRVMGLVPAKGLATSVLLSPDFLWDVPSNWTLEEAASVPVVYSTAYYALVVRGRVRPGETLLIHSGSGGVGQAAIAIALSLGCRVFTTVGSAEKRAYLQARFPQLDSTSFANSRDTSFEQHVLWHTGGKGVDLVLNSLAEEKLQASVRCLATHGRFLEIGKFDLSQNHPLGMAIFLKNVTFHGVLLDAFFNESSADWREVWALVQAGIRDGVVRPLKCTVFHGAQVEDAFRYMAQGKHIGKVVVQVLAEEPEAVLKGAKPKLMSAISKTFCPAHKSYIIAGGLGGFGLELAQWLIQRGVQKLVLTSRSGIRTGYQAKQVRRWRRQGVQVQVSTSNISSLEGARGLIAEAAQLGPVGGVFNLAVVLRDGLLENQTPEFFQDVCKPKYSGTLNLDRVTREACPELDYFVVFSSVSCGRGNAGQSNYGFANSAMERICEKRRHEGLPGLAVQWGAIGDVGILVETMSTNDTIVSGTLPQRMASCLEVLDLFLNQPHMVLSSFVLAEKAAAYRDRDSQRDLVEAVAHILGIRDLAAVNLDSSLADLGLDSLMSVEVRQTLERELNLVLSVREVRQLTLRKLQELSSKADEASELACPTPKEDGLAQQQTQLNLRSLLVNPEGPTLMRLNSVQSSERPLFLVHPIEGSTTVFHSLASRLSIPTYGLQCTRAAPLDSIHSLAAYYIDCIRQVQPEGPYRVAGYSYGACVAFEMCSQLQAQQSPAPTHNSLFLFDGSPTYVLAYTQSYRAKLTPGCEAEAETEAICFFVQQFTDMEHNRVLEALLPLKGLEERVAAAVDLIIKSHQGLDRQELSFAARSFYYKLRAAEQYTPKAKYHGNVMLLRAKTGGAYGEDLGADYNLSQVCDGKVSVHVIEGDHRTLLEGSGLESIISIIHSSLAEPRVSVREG
# Chain of G-protein coupled receptor 55 (Q9Y2T6 whole entry): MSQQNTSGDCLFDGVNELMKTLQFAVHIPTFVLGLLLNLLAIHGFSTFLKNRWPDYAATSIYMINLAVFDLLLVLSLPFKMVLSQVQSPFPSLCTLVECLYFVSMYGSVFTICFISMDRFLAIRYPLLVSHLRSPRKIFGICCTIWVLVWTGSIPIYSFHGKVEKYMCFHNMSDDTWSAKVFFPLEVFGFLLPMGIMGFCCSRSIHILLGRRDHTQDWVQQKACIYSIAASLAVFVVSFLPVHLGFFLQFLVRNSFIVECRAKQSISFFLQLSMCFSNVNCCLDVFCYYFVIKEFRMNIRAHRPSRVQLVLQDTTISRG
structure (smiles),measurement,setting,value
CN(C)CCC[C@@]1(c2ccc(F)cc2)OCc2cc(C#N)ccc21 [ESCITALOPRAM OXALATE],IC50,[1],5.45 µM (inactive)
same,IC50,[2],> 33.3 µM (inactive)
CC1CCN(S(=O)(=O)c2ccc(C(=O)Nc3nnc(C4=COCCO4)o3)cc2)CC1,AC50,[3],> 52 µM (inactive)
same,AC50,[4],48.7 µM (active)
CCc1ccccc1NC(=O)CC(O)(C(=O)OC)C(F)(F)F (stereo not drawn),IC50,[5],> 100 µM (active)
Cc1cc2c(cc1C)C(c1cccc([N+](=O)[O-])c1)CC(=O)N2 (stereo not drawn),IC50,[6],> 83.2 µM (inactive)
same,IC50,[7],7.33 µM (active)
same,IC50,[8],> 109 µM (inactive)
same,IC50,[9],5.61 µM (active)
same,EC50,[10],> 260 µM (inactive)
OC[C@H]1Nc2ccc(-c3cccc(F)c3)cc2[C@@H]2[C@H]1CCN2Cc1ccc(F)cc1,AC50,[11],> 39 µM (inactive)
same,AC50,[12],4.27 µM (active)
O=C1CSC(c2nn(-c3ccccc3)cc2-c2cc3ccccc3oc2=O)N1Cc1ccco1 (stereo not drawn),CC50,[13],> 40 µM (active)
same,IC50,[14],19.2 µM (active)
same,EC50,[15],> 53 µM (inactive)
C[C@@H]1CN([C@@H](C)CO)C(=O)c2cccc(NC(=O)c3ccncc3)c2O[C@@H]1CN(C)Cc1ccc(Oc2ccccc2)cc1,IC50,[16],1.02 µM (inactive)
same,AC50,[17],0.276 µM (active)
same,IC50,[18],> 100 µM (inactive)
same,IC50,[19],47.6 µM (inactive)
same,AC50,[20],0.506 µM (active)
same,IC50,[21],0.666 µM (active)
same,IC50,[22],0.873 µM (inactive)
same,IC50,[23],0.55 µM (active)
N=C(NOC(=O)c1cc(Br)ccc1Cl)c1ccccn1,IC50,[24],41.8 µM (active)
same,EC50,[25],> 67.5 µM (inactive)
same,EC50,[26],31.4 µM (inactive)
same,EC50,[27],> 67.5 µM (inactive)
same,IC50,[28],> 67.5 µM (inactive)
COc1ccc(CCNC2CCN(Cc3ccccc3)CC2)cc1OC,IC50,[29],6.9 µM (active)
O=C(Nc1ccc(F)c(Cl)c1)C1CC(=O)n2c(nc3ccccc32)N1 (stereo not drawn),IC50,[30],> 83.3 µM (inactive)
same,IC50,[31],83.3 µM (inactive)
same,IC50,[32],2.34 µM (active)
same,IC50,[33],1.47 µM (active)
